Experiment in all cases: inhibition of tumour cell growth, NCI panel, 48 h
In assay [1] the test system is HOP-62 NSCLC.
For assay [2], the system named is K-562 leukemia.
The subject of assay [3] is U251 CNS.
Assay [4] concerns PC-3 prostate.
For assay [5], the system named is HL-60(TB) leukemia.
Assay [6] relates to HCT-116 colon.
Assay [7] concerns IGROV1 ovarian.
For assay [8], the system named is HS 578T breast.
Assay [9] deals with UACC-257 melanoma.
Assay [10] has as its system SK-MEL-5 melanoma.

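Protocol summary: plate cells (96-well), add compound at 5 concentrations, incubate 48 h, interpolate endpoints linearly. Here, GI50 denotes the concentration required for 50% inhibition of growth. Definition used: TGI = concentration required for complete inhibition of growth.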

On to `C[C@]12CC[C@H](O)CC1=CC[C@@H]1C2CC[C@]2(C)c3nn(-c4ccc(F)cc4)nc3CC12` (stereo not given in full), for which the TGI in [1], in assay [2], in assay [3], in [4], in [5] and in [6] was > 100 µM in each case. In addition, the TGI in assay [7], in assay [8], in assay [9] and in assay [10] was > 100 µM each time.
Turning to `[N-]=[N+]=NC1=NNC2(C(=O)N1)c1ccccc1-c1ccccc12`, the TGI is > 100 µM in assay [1]; > 100 µM in [2]; > 100 µM in assay [3]; > 100 µM in assay [4]; > 100 µM in assay [5]; 27.4 µM in assay [6]. Also, the TGI in assay [7], in [8], in assay [9] and in assay [10] was > 100 µM in each case.
As to `c1ccc2[nH]c(SSc3nc4ncncc4[nH]3)nc2c1`, the GI50 was 0.427 µM in assay [1]; 0.278 µM in assay [2]; 8.63 µM in assay [3]; 5.37 µM in assay [4]; 0.71 µM in [5]; 0.913 µM in assay [6]. For the same compound, the GI50 was 4.48 µM in assay [7], 8.92 µM in [8], 4.97 µM in [9] and 3.62 µM in assay [10]. The TGI in assay [1], in [2], in assay [3], in assay [4], in [5] and in assay [6] was > 100 µM in each case. For the same compound, the TGI in assay [7] was 96.2 µM; in [8], > 100 µM; in assay [9], > 75.2 µM; in assay [10] it was > 100 µM.
Turning to `CC1(C)NCCC[C@]2(C)[C@H]3C=CC4=C5C[C@](C)(CO)CC[C@]5(C)CC[C@@]4(C)[C@]3(C)CC[C@@H]12`, the GI50 was 2.3 µM in assay [1]; 3.18 µM in assay [2]; 4.17 µM in [3]; 3.05 µM in [4]; 2.63 µM in assay [5]; 2.73 µM in assay [6]. The GI50 in assay [7] was 4.08 µM; in assay [8], 3.2 µM; in [9] it was 5.24 µM; in assay [10], 2.14 µM. Moreover, the TGI in [1] came out at 5.16 µM; in assay [2], 10.8 µM; in assay [3], 15.9 µM; in assay [4] it was 12.3 µM; in [5] it was 7.02 µM; in assay [6] it was 10.6 µM. Further, the TGI in assay [7] turned out to be 14.8 µM; in assay [8] it was 13.2 µM; in [9], 17 µM; in assay [10], 4.94 µM.
On to `O=[N+]([O-])c1ccc(-c2nc(N(CCO)CCO)c3ccccc3n2)o1`, for which the GI50 in assay [1] is 0.145 µM; in [2], 0.337 µM; in assay [3] it was 0.229 µM; in [4], 0.293 µM; in assay [5] it was 0.311 µM; in assay [6] it was 0.232 µM. For the same compound, the GI50 in [7] is 0.151 µM; in [8], 0.346 µM; in assay [9] it was 0.189 µM; in [10], 0.112 µM. For the same compound, the TGI in [1] is 0.671 µM; in assay [2], > 20.6 µM; in assay [3] it was 1.34 µM; in assay [4], 2.84 µM; in [5] it was 2.91 µM; in [6], 1.24 µM. Moreover, the TGI in assay [7] was found to be 0.45 µM; in assay [8], 1.99 µM; in assay [9], 0.453 µM; in assay [10], 0.244 µM.
As to `COc1ccc(CNc2nc3cc(N)cc(N)c3nc2-c2ccccc2)cc1OC`, the GI50 in assay [1] was 18.8 µM; in assay [2], 10.9 µM; in assay [3] it was 17.3 µM; in assay [4] it was 10.9 µM; in assay [5] it was 3.17 µM; in assay [6], 15.4 µM. The GI50 is 13.5 µM in assay [7], 23.4 µM in assay [8], 14.7 µM in assay [9] and 9.27 µM in [10]. In addition, the TGI in [1] was 34.4 µM; in assay [2] it was > 100 µM; in assay [3], 38.1 µM; in assay [4], 29.1 µM; in assay [5] it was > 89.9 µM; in assay [6], 31.5 µM. Moreover, the TGI was 38.1 µM in assay [7], > 68.6 µM in assay [8], 29.2 µM in assay [9] and 25.3 µM in assay [10].
Turning to `OCC(O)C(O)C(O)C1SC(c2ccccc2)=NN1c1ccccc1` (stereo not given), the TGI in assay [1], in assay [2], in assay [3], in [4], in assay [5] and in [6] was > 100 µM each time. The TGI in assay [7], in assay [8], in assay [9] and in [10] was > 100 µM in each case.
As for `C/C=C(\C)C(=O)N[C@H]1[C@@H](OC(C)=O)C[C@]2(C)C3CC[C@@]4(C)C(CC[C@@H]4C(C)N(C)C)C3CCC2[C@H]1O` (stereo not given in full), the GI50 is 3.42 µM in assay [1]; 1.32 µM in assay [2]; 4.48 µM in assay [3]; 2.88 µM in [4]; 4.53 µM in assay [5]; 1.88 µM in assay [6]. The GI50 in assay [7] was 5.88 µM; in [8], 12.4 µM; in [9], 1.98 µM; in [10] it was 1.6 µM. Further, the TGI stood at 9.29 µM in [1]; 5.02 µM in [2]; 18.3 µM in [3]; 24.2 µM in assay [4]; 13.6 µM in [5]; 4.34 µM in assay [6]. Also, the TGI amounted to 16.8 µM in [7], 43.1 µM in [8], 5.16 µM in assay [9] and 3.77 µM in assay [10].

The record behind these values is PubChem BioAssay (NCI).
